Test results: patent publication US20230075822A1, “USE OF CASTALAGIN OR ANALOGS THEREOF FOR ANTI-CANCER EFFICACY AND TO INCREASE THE RESPONSE TO IMMUNE CHECKPOINT INHIBITORS” (THE ROYAL INSTITUTION FOR THE ADVANCEMENT OF …, priority 2020, published 2023)

What was measured:
Ruminococcaceae = assay: qRT-PCR with Ruminococcaceae-specific primers on mouse feces; assay type: in vivo, mice; details: 6 days of oral gavage, vs water
Procedure: FIG. 9J is a graph showing the effect of castalagin treatment (0 mg/kg, 1/4×, 0.21 mg/kg, 1×, 0.85 mg/kg, and 3×, 2.55 mg/kg) on the amount of Ruminococcaceae in the feces. Real-time PCR was performed on DNA extracted from mouse stools after 6 days of oral gavage with water or castalagin at 0.21 mg/kg, 0.85 mg/kg and 2.55 mg/kg using specific primers for Ruminococcaceae detection in MCA-205-bearing, SPF-reared mice (n=5). *p<0.05, **p<0.01.
FIG. 13 is a graph depicting the results of qPCR assays performed on DNA extracted from mouse stools after 6 days of oral gavage with water or castalagin at 0.85 mg/kg using specific primers for Ruminococcaceae detection in MCA-205—bearing, SPF-reared mice (n=10). *p<0.05,
Genomic DNA extraction from mouse feces. Total genomic DNA from fecal pellets was extracted using ZymoBIOMICS DNA Miniprep Kit (Zymo Research Corporation) and immediately stored at -80° C. This protocol involves a bead beating step to ensure full recovery of bacterial DNA. DNA concentration and quality were measured using the Nanodrop ND-1000 (ThermoFisher).
Quantitative real-time PCR (qRT-PCR). Quantitative real-time PCR was performed to evaluate the relative levels of the total bacterial DNA and the V6 region of the 16S rRNA gene was amplified using the primer set 891F (5′-[…]-3′, SEQ ID NO:1) and 1033R (5′-TGCGGGACTTAACCCAACA-3′, SEQ ID NO:2) (Anhê et al. Diabetologia. 2018 April; 61(4):919-931) and specifically to evaluate the relative levels of the Ruminococcaceae DNA using the specific primers F (5′-[…]-3′, SEQ ID NO:3) and R (5′-[…]-3′, SEQ ID NO:4) (Garcia-Mazcorro JF et al FEMS Microbiol Ecol 2012; 80(3):624-36). DNA (400ng/well) extracted was combined with 500 nM of the above described primer mix and 1× qPCRBIO SyGreen blue Mix Hi-ROX (PCRBIOSystems). The qPCR reaction was performed on the Applied Biosystems StepOnePlus Real-Time PCR System (ThermoFisher Scientific) at 95° C. for 3min to denature DNA, with amplification proceeding for 40 cycles at 95° C. for 5s, 60° C. for 30 s, and completed with a melt curve stage. Raw threshold cycle (Ct) values were compared to a bacterial standard curve produced with Escherichia coli DNA for the 16s analysis and with Ruminoccocus bicirculans for the Rumniccocaceae analysis for approximation of bacterial load.

[1] = tested on: CD8^+/Foxp3^+CD4^+ T cells; assay: Immunofluorescence staining (CD4, CD8, Foxp3) of MCA-205 tumors; assay type: in vivo, C57BL/6 mice; details: castalagin/IsoPD-1 relative to Water/IsoPD-1
From the text: FIG. 10B Representative images for the CD4, CD8 and Foxp3 immunofluorescence staining of tumors in both water/ISoPD-1 and castalagin/IsoPD-1 groups. FIG. 10C Box plot for the ratio CD8^+/Foxp3^+CD4^+ in tumor in (n=8/group) obtained with immunofluorescence staining. *p<0.05. Immunofluorescence staining. Murine tumors preserved in optimal cutting temperature (OCT) compound were cut (5 μm-thick sections) and adhered to microscope slides and stored at −80C°. Upon the start of the experiment, slides were air dried and washed with cold acetone. To prevent non-specific binding to biotin, the Endogenous Avidin Biotin Blocking kit (ThermoFisher) was used. Additionally, tissues were incubated with 10% donkey serum in order to reduce background staining. Primary antibodies used are anti-CD4, anti-CD8, anti-Foxp3. Donkey anti-goat and donkey anti-rat conjugated to AF-488 were used as secondary antibodies and slides were incubated with Cy3-Streptavidin to detect biotinylated antibodies. Nuclei were visualized by counterstaining with DAPI (ThermoFisher). Images were generated using the whole slide scanner Olympus BX61VS (20× 0.75NA objective with a resolution of […]). The images were analysed using Visiomorph software (Visiopharm).

Question: Which results are given for O=C1OC[C@H]2OC(=O)c3cc(O)c(O)c(O)c3-c3c(O)c(O)c(O)c4c3C(=O)O[C@H]([C@H]3OC(=O)c5c-4c(O)c(O)c(O)c5[C@@H]3O)[C@@H]2OC(=O)c2cc(O)c(O)c(O)c2-c2c1cc(O)c(O)c2O [castalagin, Castalagin]?
Answer: Ruminococcaceae abundance (qRT-PCR) (Ruminococcaceae; 1/4 concentration dose (0.21 mg/kg)): not increase; Ruminococcaceae abundance (qRT-PCR), duplicated experiment (Ruminococcaceae; castalagin 0.85 mg/kg, n=10): increase of Ruminococcaceae; Ruminococcaceae abundance (qRT-PCR) (Ruminococcaceae; standard castalagin dose (0.85 mg/kg)): significantly increased; Ruminococcaceae abundance (qRT-PCR) (Ruminococcaceae; three-fold standard castalagin dose (2.55 mg/kg)): significantly increased; ratio CD8^+/Foxp3^+ CD4^+ in tumor (immunofluorescence) [1]: increase of the ratio CD8^+/Foxp3^+ CD4^+
